conditions: [M+2Na-H]+; instrument: DT; stepped-field

collision cross section (N2) | SMILES
286.12 Å² | CCCCCCCCCCCCCCCCCCCCCCCC(=O)O[C@H](COC(=O)CCCCCCCCC)COP(=O)([O-])OCC[N+](C)(C)C [PC(34:00)]
290.39 Å² | CCCCC/C=C\C=C/CCCCCCCCC(=O)O[C@H](COC(=O)CCCCCCCCCCCCCCCCC)COP(=O)([O-])OCC[N+](C)(C)C [PC(36:02)]
301.12 Å² | CCCCCCCCCCCCCCCCCCCCCCC(=O)N[C@@H](COP(=O)([O-])OCC[N+](C)(C)C)[C@H](O)CCCCCCCCCCCCCCC [SM(41:00)]

The remaining lines, values behind:

SMILES | collision cross section (N2)
CCCCC/C=C\C/C=C\C/C=C\CCCCCCC(=O)OC[C@H](COP(=O)(O)OC[C@H](N)C(=O)O)OC(=O)CCCCCCCCCCC/C=C\C/C=C\CCCCC [PS(42:05)] | 300.15 Å²
CCCCCCCC/C=C\CCCCCCCC(=O)OC[C@H](COP(=O)(O)OCCN)OC(=O)CCCCCCC/C=C\CCCCCCCCC [PE(37:02)] | 285.18 Å²
CC/C=C\C/C=C\C/C=C\C/C=C\CCCCC(=O)O[C@H](COC(=O)CCCCCCCCCCCCCCCCCCC)COP(=O)(O)OCCN [PE(38:04)] | 284.96 Å²
CCCCC/C=C\C/C=C\C/C=C\CCCCC(=O)OC[C@H](COP(=O)(O)OCCN)OC(=O)CCCCCCCCCCC/C=C\C/C=C\CCCCC [PE(40:05)] | 289.53 Å²
CC/C=C\C/C=C\C/C=C\C/C=C\C/C=C\C/C=C\CCC(=O)O[C@H](COCCCCCCCCCCCCCCCC)COP(=O)(O)OCCN [PE(o38:06)] | 280.85 Å²
CCCCCCCC/C=C\CCCCCCCCCC(=O)O[C@H](COCCCCCCCCCCCCCCCC)COP(=O)(O)OCCN [PE(o36:01)] | 283.23 Å²
CCCCCC/C=C\CCCCCCCC(=O)O[C@H](COCCCCCCCCCCCCCCCCCC)COP(=O)(O)OCCN [PE(o34:01)] | 276.22 Å²
CC/C=C\C/C=C\C/C=C\C/C=C\C/C=C\C/C=C\CCC(=O)OC[C@H](COP(=O)(O)OC[C@H](N)C(=O)O)OC(=O)CCCCCCCCCCC/C=C\C/C=C\CCCCC [PS(44:08)] | 301.25 Å²
CCCCCCCC/C=C\CCCCCCCC(=O)O[C@H](COC(=O)CCCCCCCCCCCCCCCCC)COP(=O)(O)OCCN [PE(36:01)] | 283.74 Å²
CCCCCCCCCC/C=C\CCCCCCCCCC(=O)O[C@H](COC(=O)CCCCCCCCCCCCCCC)COP(=O)(O)OC[C@H](N)C(=O)O [PS(38:01)] | 295.38 Å²
CCCCCCCC/C=C\CCCCCCCC(=O)OC[C@H](COP(=O)(O)OC[C@H](N)C(=O)O)OC(=O)CCCCCCC/C=C\CCCCCCCC [PS(36:02)] | 285.97 Å²
CC/C=C\C/C=C\C/C=C\C/C=C\C/C=C\C/C=C\CCC(=O)O[C@H](COC(=O)CCCCCCC/C=C\C/C=C\C/C=C\CC)COP(=O)(O)OC[C@H](N)C(=O)O [PS(40:09)] | 284.82 Å²
CCCCC/C=C\C/C=C\CCCCCCCCCCCC(=O)O[C@H](COC(=O)CCCCCCCCCCCCCCCCCCC)COP(=O)(O)OC[C@H](N)C(=O)O [PS(42:02)] | 306.07 Å²
CC/C=C\C/C=C\C/C=C\C/C=C\CCCCC(=O)O[C@H](COC(=O)CCCCCCC/C=C\CCCCCCCC)COP(=O)(O)O [PA(36:05)] | 269.3 Å²
CC/C=C\C/C=C\C/C=C\C/C=C\C/C=C\C/C=C\CCC(=O)O[C@H](COC(=O)CCCCCCCCCCCCCCCCC)COP(=O)(O)O [PA(40:06)] | 280.58 Å²
CCCCC/C=C\C/C=C\C/C=C\C/C=C\CCCCCC(=O)O[C@H](COC(=O)CCCCCCCCCCCCCCCC)COP(=O)(O)OC[C@H](N)C(=O)O [PS(39:04)] | 291.95 Å²
CCCCCCCC/C=C\CCCCCCCCCC(=O)OC[C@H](COP(=O)(O)OC[C@H](N)C(=O)O)OC(=O)CCCCCCCCCCCCCCCCCCC [PS(40:01)] | 301.13 Å²
CCCCC/C=C\C/C=C\CCCCCCCCCCCC(=O)O[C@H](COC(=O)CCCCCCCCCCCC)COP(=O)(O)O [PA(35:02)] | 270 Å²
CCCCC/C=C\C/C=C\C/C=C\CCCCC(=O)OC[C@H](COP(=O)(O)OC[C@H](N)C(=O)O)OC(=O)CCCCCCCCC/C=C\CCCCCCCCCC [PS(40:04)] | 298.27 Å²

same assay, conditions: [M+Cl]-; instrument: DT; stepped-field

collision cross section (N2) | SMILES
300.79 Å² | CCCCCCCCCCCCC=CC[C@@H](O)[C@H](COP(=O)([O-])OCC[N+](C)(C)C)NC(=O)CCCCCCCCCCCCCCCCCCCCC [SM(40:01)]
301.5 Å² | CCCCCCCCCCCCCCCCCCCCCC(=O)N[C@@H](COP(=O)([O-])OCC[N+](C)(C)C)[C@H](O)CCCCCCCCCCCCCCC [SM(40:00)]
295.12 Å² | CCCCC/C=C\C=C/CCCCCCCCC(=O)O[C@H](COC(=O)CCCCCCCCCCCCCCCCC)COP(=O)([O-])OCC[N+](C)(C)C [PC(36:02)]
293.17 Å² | CCCCCCCCCCCCCCCCCCCCCC(=O)N[C@@H](CO[C@@H]1O[C@H](CO)[C@@H](O)C(O)C1O)[C@H](O)CCCCCCCCCCCCCCC (stereo partly drawn) [GlcCer(40:00)]

Second part, the compound before the results:

SMILES | collision cross section (N2)
CC/C=C/C=C/C=C/C=C/CCCCCCCC(=O)O[C@H](COC(=O)CCCCCCCCCCCCCCCCC)COP(=O)([O-])OCC[N+](C)(C)C [PC(36:04)] | 293.08 Å²
CC/C=C\C/C=C\C/C=C\C/C=C\C/C=C\CCCCCC(=O)O[C@H](COC(=O)CCCCCCCCCCCCCCC)COP(=O)([O-])OCC[N+](C)(C)C [PC(38:05)] | 297.1 Å²

same assay, conditions: [M+H-H2O]+; instrument: DT; stepped-field

collision cross section (N2) | SMILES
257.25 Å² | CCCCCCCCCCCCC=CC[C@@H](O)[C@H](CO)NC(=O)CCCCCCCCCCCCCCCCC [Cer(36:01)]

same assay, conditions: [M+HCOO]-; instrument: DT; stepped-field

collision cross section (N2) | SMILES
301.44 Å² | CCCCCCCCCCCCC=CC[C@@H](O)[C@H](COP(=O)([O-])OCC[N+](C)(C)C)NC(=O)CCCCCCCCCCCCCCCCCCCCC [SM(40:01)]
303.38 Å² | CCCCCCCCCCCCCCCCCCCCCC(=O)N[C@@H](COP(=O)([O-])OCC[N+](C)(C)C)[C@H](O)CCCCCCCCCCCCCCC [SM(40:00)]
289.73 Å² | CCCCCCCCCCCCC=CC[C@@H](O)[C@H](COP(=O)([O-])OCC[N+](C)(C)C)NC(=O)CC=CCCCCCCCCCCCCCC [SM(36:02)]
295.45 Å² | CCCCC/C=C\C=C/CCCCCCCCC(=O)O[C@H](COC(=O)CCCCCCCCCCCCCCCCC)COP(=O)([O-])OCC[N+](C)(C)C [PC(36:02)]
298.07 Å² | CCCCCCCCCCCCCCCCCCCCCC(=O)N[C@@H](CO[C@@H]1O[C@H](CO)[C@@H](O)C(O)C1O)[C@H](O)CCCCCCCCCCCCCCC (stereo partly drawn) [GlcCer(40:00)]

The remaining lines, values behind:

SMILES | collision cross section (N2)
CC/C=C/C=C/C=C/C=C/CCCCCCCC(=O)O[C@H](COC(=O)CCCCCCCCCCCCCCCCC)COP(=O)([O-])OCC[N+](C)(C)C [PC(36:04)] | 292.86 Å²
CC/C=C\C/C=C\C/C=C\C/C=C\C/C=C\CCCCCC(=O)O[C@H](COC(=O)CCCCCCCCCCCCCCC)COP(=O)([O-])OCC[N+](C)(C)C [PC(38:05)] | 297.3 Å²

same assay, conditions: [M+H]+; instrument: DT; stepped-field

collision cross section (N2) | SMILES
274.03 Å² | CCCCCCCCCCCCCCCCCCCCCC(=O)N[C@@H](CO)[C@H](O)CCCCCCCCCCCCCCC [Cer(40:00)]
297.88 Å² | CCCCCCCCCCCCC=CC[C@@H](O)[C@H](COP(=O)([O-])OCC[N+](C)(C)C)NC(=O)CCCCCCCCCCCCCCCCCCCCC [SM(40:01)]
299.61 Å² | CCCCCCCCCCCCCCCCCCCCCC(=O)N[C@@H](COP(=O)([O-])OCC[N+](C)(C)C)[C@H](O)CCCCCCCCCCCCCCC [SM(40:00)]
284.15 Å² | CCCCCCCCCCCCC=CC[C@@H](O)[C@H](COP(=O)([O-])OCC[N+](C)(C)C)NC(=O)CC=CCCCCCCCCCCCCCC [SM(36:02)]
285.92 Å² | CCCCC/C=C\C=C/CCCCCCCCC(=O)O[C@H](COC(=O)CCCCCCCCCCCCCCCCC)COP(=O)([O-])OCC[N+](C)(C)C [PC(36:02)]

More lines, now with the values behind:

SMILES | collision cross section (N2)
CCCCC/C=C\C/C=C\C/C=C\CCCCCCC(=O)OC[C@H](COP(=O)(O)OC[C@H](N)C(=O)O)OC(=O)CCCCCCCCCCC/C=C\C/C=C\CCCCC [PS(42:05)] | 295.24 Å²
CCCCCCCC/C=C\CCCCCCCCCC(=O)O[C@H](COCCCCCCCCCCCCCCCC)COP(=O)(O)OCCN [PE(o36:01)] | 277.08 Å²

— the C3SDB collision cross section collection
